We go through six compounds from patent publication US12129246B1, “Hydroquinazoline derivatives for the treatment of a disease or disorder” (Novartis AG, priority 2023, dated 2024).

The target in assay [1] is monkey NPR1 (Macaca fascicularis, UniProt A0A7N9DBT9). Put plainly: Cellular cGMP production assay, monkey NPR1 expressing CHO-K1 cells (CisBio HTRF). The assay is classed as cell-based. Particulars: for Monkey NPR1 Amax (% of ANP): maximum cGMP production as percentage of the maximum cGMP produced with ANP. The protocol: (§1) Cellular cGMP is a major second messenger that mediates cell activities and is synthesized by activated NPR1 triggered by binding of the natural ligand ANP. […] The assay was performed according to manufacturer's instructions with minor deviations. […] All compound stocks were diluted in PBS+0.1% BSA at 2-fold the final assay concentration. After addition of 10 μL/well of assay buffer (PBS+0.1% BSA+1 mM IBMX) and 10 μL/well of the compounds in different concentrations (12-point dose-response with 3-fold dilutions from a top concentration of 30 μM), the plate was incubated for 30 min at 37° C. to allow for cGMP production. In parallel, a standard curve using a calibrator (contained in the kit) was generated. The cells were lysed and a mix of cGMP-d2 and anti-cGMP-cryptate was added and incubated for 1 h at room temperature. The readout was performed using an Envision plate reader (PerkinElmer) with an excitation wavelength of 317 nm and an emission wavelength of 665 nm. cGMP concentration (Delta F [° %]) was calculated according to the following formulae: […]
Chain of monkey NPR1 (A0A7N9DBT9 entry or part of it): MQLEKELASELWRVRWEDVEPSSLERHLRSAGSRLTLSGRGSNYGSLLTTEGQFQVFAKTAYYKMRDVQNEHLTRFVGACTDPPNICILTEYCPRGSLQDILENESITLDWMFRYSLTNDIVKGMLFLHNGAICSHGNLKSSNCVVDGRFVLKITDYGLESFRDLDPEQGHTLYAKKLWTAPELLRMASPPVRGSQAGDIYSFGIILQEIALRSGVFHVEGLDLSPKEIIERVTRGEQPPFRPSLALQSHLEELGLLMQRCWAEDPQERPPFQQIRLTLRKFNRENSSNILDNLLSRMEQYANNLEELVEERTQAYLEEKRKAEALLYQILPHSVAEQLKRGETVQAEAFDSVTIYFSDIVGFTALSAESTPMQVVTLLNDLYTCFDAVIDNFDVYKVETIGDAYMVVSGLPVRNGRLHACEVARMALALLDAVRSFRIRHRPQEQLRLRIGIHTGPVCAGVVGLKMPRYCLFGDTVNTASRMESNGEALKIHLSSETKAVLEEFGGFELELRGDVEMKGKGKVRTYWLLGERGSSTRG
Background: Time-resolved FRET reads energy transfer from a long-lived donor to a nearby acceptor.

The target in assay [2] is T1, human NPR1 (Homo sapiens, UniProt P16066).
T1 construct: host or cells: CHO-K1
T1 sequence (P16066 33-1061): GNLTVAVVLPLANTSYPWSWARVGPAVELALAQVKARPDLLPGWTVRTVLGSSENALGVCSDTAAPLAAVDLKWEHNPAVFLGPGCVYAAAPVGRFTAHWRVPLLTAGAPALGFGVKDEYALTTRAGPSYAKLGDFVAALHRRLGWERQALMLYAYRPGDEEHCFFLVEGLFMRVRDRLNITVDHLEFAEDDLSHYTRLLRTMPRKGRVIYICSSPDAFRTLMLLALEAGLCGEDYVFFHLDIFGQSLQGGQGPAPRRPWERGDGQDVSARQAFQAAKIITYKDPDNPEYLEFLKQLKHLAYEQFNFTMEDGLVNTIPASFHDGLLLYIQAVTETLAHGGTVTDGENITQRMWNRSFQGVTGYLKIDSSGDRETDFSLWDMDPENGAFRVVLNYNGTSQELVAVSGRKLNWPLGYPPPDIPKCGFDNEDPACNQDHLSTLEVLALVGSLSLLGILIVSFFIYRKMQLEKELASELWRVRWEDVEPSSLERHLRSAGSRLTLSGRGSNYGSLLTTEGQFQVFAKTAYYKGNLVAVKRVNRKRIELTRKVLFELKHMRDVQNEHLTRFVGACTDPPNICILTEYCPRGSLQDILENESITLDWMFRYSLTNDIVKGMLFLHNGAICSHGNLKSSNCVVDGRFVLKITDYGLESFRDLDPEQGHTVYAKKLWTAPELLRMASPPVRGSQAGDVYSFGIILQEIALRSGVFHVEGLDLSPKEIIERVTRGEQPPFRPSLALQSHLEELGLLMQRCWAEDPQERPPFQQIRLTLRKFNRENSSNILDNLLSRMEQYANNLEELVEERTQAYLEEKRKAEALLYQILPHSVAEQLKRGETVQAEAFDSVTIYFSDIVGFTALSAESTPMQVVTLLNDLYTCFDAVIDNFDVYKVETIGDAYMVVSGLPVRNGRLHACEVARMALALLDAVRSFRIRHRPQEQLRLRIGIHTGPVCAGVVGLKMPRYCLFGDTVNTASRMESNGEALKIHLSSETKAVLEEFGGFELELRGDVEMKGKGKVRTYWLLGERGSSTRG
As to the kind of experiment: Cellular cGMP production assay, human NPR1 expressing CHO-K1 cells (CisBio HTRF). The assay is classed as cell-based. The note with it: for AC50: cGMP production, 30 min at 37° C., 12-point dose-response from 30 μM; for Human NPR1 Amax (% of ANP): maximum cGMP production as percentage of the maximum cGMP produced with ANP. The protocol:
as §1

[3] abbreviates: cGMP production, monkey NPR1 CHO-K1 cells, 30 min at 37° C., 12-point dose-response from 30 μM, read-out: Monkey NPR1 AC50.

Where two headings read alike, the source gives them in different places.

A word on the AC50: it is the concentration at which the activity in the assay is half-maximal. On to `CC[C@H]([C@H]1CC[C@H](C(=O)O)CC1)N(C)c1nc2c(c(N[C@@H](CN3CCC[C@H](C)C3)c3cnn(C)c3)n1)CN(c1cccc(C#N)c1)CC2` [Compound 174, (1R,4r)-4-((R)-1-((6-(3-cyanophenyl)-4-(((R)-1-(1-methyl-1H-pyrazol-4-yl)-2-((S)-3-methylpiperidin-1-yl)ethyl)amino)-5,6,7,8-tetrahydropyrido[4,3-d]pyrimidin-2-yl)(methyl)amino)propyl)cyclohexane-1-carboxylic acid], for which the AC50 in assay [1] (setting [3]) is 10 nM. In addition, the “Monkey NPR1 Amax (% of ANP)” value in assay [1] (monkey NPR1 CHO-K1 cells) was 97.462 % of ANP. Also, in assay [2], the activity was half-maximal at 14 nM (AC50) and the “Human NPR1 Amax (% of ANP)” value is listed as 93.788 % of ANP.
For the compound `CC[C@@H](N(C)c1nc2c(c(N[C@@H](CN3C4CCCC3CCC4)c3cnn(C)c3)n1)C[C@H](c1ccccc1F)CC2)C12CC(C(=O)O)(C1)C2` [Compound 41, 3-((R)-1-(((R)-4-(((R)-2-(9-azabicyclo[3.3.1]nonan-9-yl)-1-(1-methyl-1H-pyrazol-4-yl)ethyl)amino)-6-(2-fluorophenyl)-5,6,7,8-tetrahydroquinazolin-2-yl)(methyl)amino)propyl)bicyclo[1.1.1]pentane-1-carboxylic acid], the activity in assay [1] was half-maximal at 144 nM (AC50). For the same compound, the “Monkey NPR1 Amax (% of ANP)” value in assay [1] (monkey NPR1 CHO-K1 cells) is 92.494 % of ANP. Further, in assay [2], the half-maximal activity concentration (AC50) was 168 nM and the “Human NPR1 Amax (% of ANP)” value was 96.843 % of ANP.
Consider `CC[C@@H](Nc1nc2c(c(N[C@@H](CN3CCCC4(CCOC4)C3)c3cnn(CC)c3)n1)C[C@H](c1ccccc1)CC2)[C@H]1CC[C@H](C(=O)O)CC1` (stereo partly drawn) [Compound 109, (1R,4r)-4-((1R)-1-(((6R)-4-(((1R)-1-(1-ethyl-1H-pyrazol-4-yl)-2-(2-oxa-7-azaspiro[4.5]decan-7-yl)ethyl)amino)-6-phenyl-5,6,7,8-tetrahydroquinazolin-2-yl)amino)propyl)cyclohexane-1-carboxylic acid], for which, in assay [1] (setting [3]), the half-maximal activity concentration (AC50) was found to be 190 nM. Also, in assay [1] (monkey NPR1 CHO-K1 cells), the “Monkey NPR1 Amax (% of ANP)” value is 115.338 % of ANP. In assay [2], the AC50 was 412 nM and the “Human NPR1 Amax (% of ANP)” value was 91.101 % of ANP.
Take `CC[C@@H](Nc1nc2c(c(N[C@@H](CN3CCC[C@H](C)C3)c3scnc3C)n1)C[C@H](c1ccccc1)CC2)[C@H]1CC[C@H](C(=O)O)CC1` [Compound 73, (1R,4r)-4-((R)-1-(((R)-4-(((S)-2-((S)-3-methylpiperidin-1-yl)-1-(4-methylthiazol-5-yl)ethyl)amino)-6-phenyl-5,6,7,8-tetrahydroquinazolin-2-yl)amino)propyl)cyclohexane-1-carboxylic acid]: the AC50 in assay [1] (setting [3]) is 172 nM. For the same compound, the “Monkey NPR1 Amax (% of ANP)” value in assay [1] (monkey NPR1 CHO-K1 cells) is given as 99.527 % of ANP. In assay [2], half-maximal activity (AC50) was put at 245 nM and the “Human NPR1 Amax (% of ANP)” value is on record as 94.290 % of ANP.
As to `CC[C@@H](Nc1nc2c(c(N[C@@H](CN3C4CCCC3CCC4)c3cnn(C)c3)n1)C[C@H](c1ccccc1)CC2)[C@H]1CC[C@H](C(=O)O)CC1` [Compound 59, (1R,4r)-4-((R)-1-(((R)-4-(((R)-2-((1S,5S)-9-azabicyclo[3.3.1]nonan-9-yl)-1-(1-methyl-1H-pyrazol-4-yl)ethyl)amino)-6-phenyl-5,6,7,8-tetrahydroquinazolin-2-yl)amino)propyl)cyclohexane-1-carboxylic acid], the half-maximal activity concentration (AC50) is 153 nM in assay [1] and 205 nM in assay [2]. In assay [1] (monkey NPR1 CHO-K1 cells), the “Monkey NPR1 Amax (% of ANP)” value is 104.401 % of ANP. Also, the “Human NPR1 Amax (% of ANP)” value in assay [2] was 99.614 % of ANP.
Regarding `CC[C@H]([C@H]1CC[C@H](C(=O)O)CC1)N(C)c1nc2c(c(N[C@@H](CN3CCCC(F)(F)CC3)c3cnn(C)c3)n1)C[C@H](c1ccccc1)CC2` [Compound 150, (1R,4r)-4-((R)-1-(((R)-4-(((R)-2-(4,4-difluoroazepan-1-yl)-1-(1-methyl-1H-pyrazol-4-yl)ethyl)amino)-6-phenyl-5,6,7,8-tetrahydroquinazolin-2-yl)(methyl)amino)propyl)cyclohexane-1-carboxylic acid], the AC50 in assay [1] (setting [3]) is 1040 nM. In assay [1] (monkey NPR1 CHO-K1 cells), the “Monkey NPR1 Amax (% of ANP)” value is recorded as 156.200 % of ANP. In assay [2], the activity was half-maximal at 1160 nM (AC50) and the “Human NPR1 Amax (% of ANP)” value was 130.487 % of ANP.
